According to patent US7504489B2, “Inhibitors of ADP-ribosyl transferases, cyclases, and hydrolases, and uses thereof” (Albert Einstein College of Medicine of Yeshiva University, priority 2001, dated 2009):
pKi: −log10 of the molar value. Where “and” joins values, the source holds several entries; their conditions need not be identical. Identical values can stand only once. Values belong to the molecule of their own block, whether it stands above or below them.

Key:
[1] = biological target: T1, CD38 (Homo sapiens, UniProt P28907); test: Radiochemical measurement of reaction rates (covalent labelling of CD38 by [2′-3H] inhibitor, gel filtration); format: binding; conditions: for kon (radioactivity, radiolabeled inhibitor bound versus time): [2′-3H]βNdR 9 μM, CD38 1.2 μM, gel filtration
T1 sequence (P28907 45-300): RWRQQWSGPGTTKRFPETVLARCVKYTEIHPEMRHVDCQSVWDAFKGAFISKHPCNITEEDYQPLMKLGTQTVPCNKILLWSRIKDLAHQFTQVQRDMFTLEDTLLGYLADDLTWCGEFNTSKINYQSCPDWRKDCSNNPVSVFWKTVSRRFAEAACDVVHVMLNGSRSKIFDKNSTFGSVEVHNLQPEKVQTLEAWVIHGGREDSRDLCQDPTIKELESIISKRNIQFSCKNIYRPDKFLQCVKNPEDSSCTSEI
Protocol: [2′-^3H]β-1′-nicotinamide-2′-deoxyribose ([2′-^3H]βNdR) was used to measure the covalent interaction of inhibitor with CD38 as follows: 9 μM inhibitor with specific activity of 1233 cpm/nmol was incubated with 1.2 μM CD38 in a volume of 1 ml of 50 mM potassium phosphate (pH 7.5). The reactions were started by enzyme addition, and quenched by freezing in a dry ice/acetone bath after 30, 60, 90, 120, 250, 500, and 1000 sec. Samples were placed on 1 ml gel filtration columns (0° C.) that were used to separate protein from free inhibitor. Columns were cooled on ice, and eluted with cold (0° C.) 10 mM potassium phosphate (pH 7.5) as eluant. Fractions (1 ml) were combined with 9 ml of scintillation fluid, and counted for radioactivity. A sample lacking enzyme, but having the same incubations, was performed as a blank control. A sample using the α-[2′-^3H]nicotinamide-2′-deoxyribose of equal concentration and specific activity, and having the same incubations, was performed as a second control. The observed cpm in the protein peak (fractions 3+4) was fitted to the equation A(t)=A0(1−exp(−kt))+B, where A(t) is the cpm in protein at time t, A0 is the cpm at reaction completion, k is the observed pseudo-first-order rate constant, B is the activity of the blank, and t is the time in seconds.
The covalent interaction of [2′-^3H]β-1′-pyridyl-2′-deoxyribose with CD38 was measured as follows: 25 mM inhibitor with specific activity of 1233 cpm/nmol was incubated with 25.2 μM CD38 in a volume of 50 μl of 50 mM Tricine (pH 7.5). The reactions were started by enzyme addition, and quenched by freezing in a dry ice/acetone bath after 2 h, 7200 s. Samples were placed on (0° C.) 1-ml gel filtration columns (P-10) that were used to separate protein from free inhibitor. Columns were cooled on ice, and eluted with cold (0° C.) 10 mM potassium phosphate (pH 7.5) as eluant. Fractions (1 ml) were combined with 9 ml of scintillation fluid, and counted for radioactivity. A sample lacking enzyme, but undergoing the same incubations, was performed as a blank control. A sample using the α-[2′-^3H]nicotinamide-2′-deoxyribose of equal concentration and specific activity, and the same incubations, was used as a second control. The observed cpm in the protein peak (fractions 3+4) were fitted to the equation A(t)=A0(1−exp(−kt))+B, where A(t) is the cpm in protein at time t, A0 is the cpm at reaction completion, k is the observed pseudo-first-order rate constant, B is the activity of the blank, and t is the time in s.

[2] = biological target: T1, CD38; test: Off-rate measurement (recovery of CD38 catalytic activity after inactivation); format: biochemical
Protocol: Recovery of CD38 catalytic activity after inactivation with β-1′-nicotinamide-2′-deoxyribose was measured in reaction mixtures containing 500 nM CD38, 50 mM inhibitor, and 15 μM deoxyriboside. After timed intervals, 5 μl of the reaction mixture were added to a 1-ml reaction of 50 mM HEPES (pH 7.5) containing 300 μM NGD^+. A control was also prepared without the inhibitor. Production of cGDPR was determined by monitoring absorbance at 295 nm. The absorbance was fitted to the equation A(t)=vt+(b−v)(1−exp(−kofft))/koff+A0 (19), where koff is the observed rate constant, b is the initial rate, v is the final rate, and A0 is the initial absorbance. Recovery of CD38 catalytic activity after inhibition by βNdR was measured by adding inactivated CD38 to solutions of NGD^+, and monitoring absorbance change at 295 nm for periods of 3-4 h. The recovery process was slow: full catalytic activity was not restored over this time period. However, the measured rate constant for recovery could be measured by regressive fit of the data to the activity recovery equation, A(t)=vt+(b−v)(1−exp(−kofft))/koff+A0, where koff is the observed rate constant, b is the initial rate, v is the final rate, and A0 is the initial absorbance. […] The proposed mechanism of recovery operates through the hydrolytic path (FIG. 4).

[3] = biological target: T1, CD38; test: Determination of Ki and kchem by competitive method (NGD+ substrate, absorbance at 295 nm); format: biochemical
Protocol: CD38 was used to start reactions containing 1-ml solutions of 50 mM potassium phosphate, 100 μM NGD, and 50, 25, 12.5, 6.25, and 0 μM βNdR. Reactions were initiated with 2 μl of 7 μM CD38, and reaction progress was monitored by measurement of absorbance at 295 nm. The initial slopes were used to determine the Ki value. The time course of absorbance for each sample was fitted to the equation A(t)=vt+(b−v)(1−exp(−kt))/k+A0, where k is the observed rate constant, b is the initial rate, v is the final rate, and A0 is the initial absorbance. The rate constant kchem (FIG. 3) was determined as reported (19).
This mechanism of inhibition was tested by treatment of CD38 with different concentrations of inhibitor in the presence of 50 Km of substrate to establish values for Ki and kchem. In the presence of 100 μM NGD^+, reaction mixtures containing 0 to 50 μM βNdR were initiated by addition of enzyme (FIG. 8).

[4] = biological target: T1, CD38; test: CD38 activity and inhibition measurements (time-dependent inactivation, NGD+ to cGDPR, absorbance at 295 nm); format: biochemical; conditions: for residual enzymatic activity, % of the control: 10 min after treatment of enzyme (500 nM) with excess inhibitor (10 μM), 10 min, 10 µM
Protocol: […] Aliquots of the reaction were assayed by placing 5 μl of the reaction mixture into 1 ml of 50 mM HEPES (pH 7.5) containing 100 μM NGD^+, at 30, 60, 90, 120, 180, or 300 sec. The conversion of NGD^+ to cGDPR was monitored by determining absorbance at 295 nm. A reaction mixture lacking inhibitor was used as a control. Activity was determined as a function of time, and fitted to the equation A(t)=[…]^-kt, where A0 is activity at time zero (control), t is time in seconds, and k is the observed pseudo-first-order rate constant. Human CD38 (200 nM) was incubated with β-1'-pyridyl-2'-deoxyribose (25 mM) in a volume of 100 μl of 50 mM Tricine (pH 7.5). Aliquots of the reaction (5 μl) were assayed by placing into 1 ml of 50 mM HEPES (pH 7.5) containing 100 μM NGD^+ at 750, 1500, 2250, 3000, 4000, 8000, and 14400 s. The conversion of NGD^+ to cGDPR was monitored by absorbance at 295 nm. A reaction mixture lacking inhibitor was used as a control. Activity was determined as a function of time, and fitted to the equation A(t)=C+[…]^-kt, where A0 is activity at time zero (control), t is time in s, k is the observed pseudo-first-order rate constant, and C represents uninhibited activity at equilibrium.

[5] = biological target: T1, CD38; test: Determination of Ki and kchem by competitive method (NGD+ substrate, absorbance at 295 nm); format: biochemical; remark: listed apart in the source
[6] = biological target: T2, CD38 (Homo sapiens, UniProt P28907); conditions: 37° C.; cited from earlier work
T2 sequence (P28907 1-300): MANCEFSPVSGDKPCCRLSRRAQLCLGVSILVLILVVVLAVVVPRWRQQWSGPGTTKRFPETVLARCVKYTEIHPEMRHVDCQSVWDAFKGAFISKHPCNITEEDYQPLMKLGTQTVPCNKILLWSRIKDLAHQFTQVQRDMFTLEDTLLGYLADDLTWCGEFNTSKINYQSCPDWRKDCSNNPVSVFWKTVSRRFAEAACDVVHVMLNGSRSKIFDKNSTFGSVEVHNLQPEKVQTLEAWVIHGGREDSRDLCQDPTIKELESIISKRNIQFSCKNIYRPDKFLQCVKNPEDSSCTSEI

[7] = listed as β-1′-nicotinamide-2′-deoxyribose

kon (radioactivity, radiolabeled inhibitor bound versus time) [1]: 1540 M⁻¹ s⁻¹
kon (radioactivity, radiolabeled inhibitor bound versus time) [1, 7]: 1500 M⁻¹ s⁻¹
pKi ([1]; kon from radioactivity, read-out: Kieff = koff/kon (Radioactivity, koff)): 8.48
pKi ([1]; read-out: Kieff = koff/kon (kon from radioactivity)): 8.49
koff, rate constant for recovery (activity recovery, hydrolysis) ([2]; inactivated CD38 added to NGD+, 3-4 h, no nicotinamide): 5e-06 s⁻¹
rate of CD38-deoxyribose hydrolysis relative to CD38 ribose 5-phosphate ([2]; ratio of hydrolysis rates of covalent intermediates): 10^−8
kchem, rate constant for chemical reaction (competitive onset) ([3]; 100 μM NGD+, 0 to 50 μM inhibitor, listed as β-1′-nicotinamide-2′-deoxyribose): 0.0126 s⁻¹
pKi ([3]; 100 μM NGD+, 0 to 50 μM inhibitor, listed as β-1′-nicotinamide-2′-deoxyribose, read-out: Ki (competitive, initial slopes)): 5.60
pKi ([3]; 100 μM NGD+, 0 to 50 μM inhibitor, read-out: Ki (competitive, initial slopes)): 6.00
pKi ([3]; average of the three Kieff values, read-out: Kieff (Average of values)): 8.54
pKi ([3]; listed as β-D-1′-nicotinamide-2′-deoxyribofuranoside, read-out: Kieff, effective inhibition constant (average)): 8.54
pKi ([3]; read-out: Kieff = Kikoff/kchem): 9.40
pKi ([3]; read-out: Kieff, effective inhibition constant (average)): 8.54 and 8.70
residual enzymatic activity, % of the control [4]: less than 5%
residual enzymatic activity, % of the control [4, 7]: < 5%
pKi ([4]; kon from activity decay, read-out: Kieff = koff/kon (Activity, koff)): 8.29
pKi ([4]; read-out: Kieff = koff/kon (kon from activity decay)): 8.30
Molecule: NC(=O)c1ccc[n+]([C@H]2C[C@H](O)[C@@H](CO)O2)c1 [βNdR, β-1′-nicotinamide-2′-deoxyribose]

covalent attachment of the sugar moiety to the enzyme ([1]; [2′-3H] labelled inhibitor, gel-filtration): confirmed covalent attachment
pKi ([3]; 5′-phospho derivative, similar studies, read-out: Ki): < 3.70
effect of extended incubation on CD38 ([4]; 200 μM inhibitor): inhibited the enzyme
minimum value for kchem ([4]; 200 μM inhibitor, extended incubations, activity versus time): ≥ 0.00022 s⁻¹
Molecule: 5′-phospho-1′-β-pyridyl-2′-deoxyribose [5′-phospho-1′-pyridyl-deoxyribose]

Continued, molecule first:

Molecule: OC[C@H]1O[C@@H]([n+]2ccccc2)C[C@@H]1O [β-pyridyl-deoxyribose, β-1′-pyridyl-2′-deoxyribose]
pKi ([5]; 50 μM to 50 mM inhibitor, 5 μM (3 Km) NGD+, read-out: Ki for CD38 inhibition): 1.96
pKi ([3]; calculated value, read-out: Kieff (koffKi/kchem)): 3.49
Kieff relative to Kieff for βNdR ([3]; times larger): 10^5 times
extent of inhibition achieved ([4]; 25 mM inhibitor, limited by long onset times and inhibitor decomposition): 60-80%
rate of covalent inactivation, equivalent to kchem ([4]; saturating concentration (25 mM), absence of NGD+): 0.00017 s⁻¹

Molecule: NC(=O)c1ccc[n+]([C@@H]2O[C@H](COP(=O)(O)O)[C@@H](O)[C@H]2O)c1 [NMN^+]
kcat for hydrolysis (hydrolysis of the covalent intermediate) [6]: 512 s⁻¹

Molecule: NC(=O)c1ccc[n+]([C@@H]2O[C@H](COP(=O)([O-])OP(=O)(O)OC[C@H]3O[C@@H](n4cnc5c(=O)[nH]c(N)nc54)[C@H](O)[C@@H]3O)[C@@H](O)[C@H]2O)c1 [NGD^+, Nicotinamide guanine dinucleotide, reference compound]
Km ([5]; CD38 substrate): 2 µM
